# In US8710080B2, “Prodrugs of [4 [4-(5-Aminomethyl-2-fluoro-phenyl)-piperidin-1-yl]-(1H-pyrrolo-pyridin-yl)-methanones and synthesis thereof” (Sanofi, priority 2009, dated 2014):
# Structures can show the parent of a compound that is named as a salt.
# Assays:
# [1] = Rat plasma stability (incubation in rat plasma, LC-MS/MS); format: in vitro ADME; settings: 100 ng/mL, 37° C.
# Method: The rat plasma stability of Example 1 was tested by incubation of the compound in rat plasma at 100 ng/mL followed by LC-MS/MS bioanalysis to measure remaining parent compound relative to the time zero condition (no incubation). Concentrations of 1 remaining at 1 and 4 hr after incubation at 37° C. were 19% and 0%, indicating 1 was very unstable under these conditions. Since 1 was designed as a prodrug, plasma instability is a desirable attribute.
# [2] = target: T1, beta-Tryptase (Homo sapiens, UniProt Q15661); assay: beta-Tryptase inhibition, chromogenic enzyme assay (S2366 substrate); format: biochemical; settings: activity of parent drug against beta-Tryptase; Ki calculated from IC50
# T1 construct: host or cells: yeast cells
# T1 sequence (Q15661 31-275): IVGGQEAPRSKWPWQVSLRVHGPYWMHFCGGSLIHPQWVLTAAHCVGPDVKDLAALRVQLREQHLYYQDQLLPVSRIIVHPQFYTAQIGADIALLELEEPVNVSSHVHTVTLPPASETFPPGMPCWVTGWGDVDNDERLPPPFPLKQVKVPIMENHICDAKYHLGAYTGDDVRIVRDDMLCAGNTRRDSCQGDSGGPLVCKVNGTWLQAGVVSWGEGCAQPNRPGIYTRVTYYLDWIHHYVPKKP
# From the text: Inhibition of this catalytic activity may be measured by the in vitro enzyme assay and the cellular assay.
# Tryptase inhibition activity is confirmed using either isolated human lung tryptase or recombinant human beta tryptase expressed in yeast cells. Essentially equivalent results are obtained using isolated native enzyme or the expressed enzyme. The assay procedure employs a 96 well microplate (Costar 3590) using L-pyroglutamyl-L-prolyl-L-arginine-para-nitroanilide (S2366: Quadratech) as substrate (essentially as described by McEuen et. al. Biochem Pharm, 1996, 52, pages 331-340). Assays are performed at room temperature using 0.5 mM substrate (2×Km) and the microplate is read on a microplate reader (Beckman Biomek Plate reader) at 405 nm wavelength.
# Materials and Methods for Tryptase Primary Screen (Chromogenic Assay)
# S2366 (Stock solutions of 2.5 mM).
# Purified recombinant beta Tryptase Stocks of 310 μg/mL. […]
# The protocol is essentially the same as above except that the compound is added in duplicates at the following final concentrations: 0.01, 0.03, 0.1, 0.3, 1, 3, 10 μM (All dilutions carried out manually). […] From the IC50 value, the Ki can be calculated using the following formula: Ki=IC50/(1+[Substrate]/Km).
Compound,Rat plasma stability (in words) [1],Concentration remaining relative to time zero ([1]; 1 hr incubation) [%],Concentration remaining relative to time zero ([1]; 4 hr incubation) [%],Ki [2] [nM]
"COCCn1cc(C(=O)N2CCC(c3cc(CNC(=O)CNC(=O)[C@@H](N)C(C)C)ccc3F)CC2)c2c(C(=O)N3CCOCC3)cccc21.Cl [Example 1, (S)-2-Amino-N-[(4-fluoro-3-{1-[1-(2-methoxy-ethyl)-4-(morpholine-4-carbonyl)-1H-indole-3-carbonyl]-piperidin-4-yl}-benzylcarbamoyl)-methyl]-3-methyl-butyramide hydrochloride]",very unstable,19,0,
"COCCn1cc(C(=O)N2CCC(c3cc(CN)ccc3F)CC2)c2c(C(=O)N3CCOCC3)cccc21 [Parent of 1, [4-(5-Aminomethyl-2-fluoro-phenyl)-piperidin-1-yl]-[1-(2-methoxy-ethyl)-4-(morpholine-4-carbonyl)-1H-indol-3-yl]-methanone hydrochloride]",,,,29
"COCCn1cc(C(=O)N2CCC(c3cc(CN)ccc3F)CC2)c2c(OC(F)(F)F)ccc(F)c21 [Parent of 4, [4-(5-aminomethyl-2-fluoro-phenyl)-piperidin-1-yl]-[7-fluoro-1-(2-methoxy-ethyl)-4-trifluoromethoxy-1H-indol-3-yl]-methanone hydrochloride]",,,,38
